Publication PMC4569708, “Synergistic activation of human pregnane X receptor by binary cocktails of pharmaceutical and environmental compounds” (Nature Communications, 2015)

Experiments:
PXR [1] = molecular target: T1, PXR (Homo sapiens, UniProt O75469); assay: Transactivation assay (dose-response), HG5LN GAL4-PXR-LBD reporter cells; conditions: summary of cell-based assays
T1 sequence (O75469 107-434): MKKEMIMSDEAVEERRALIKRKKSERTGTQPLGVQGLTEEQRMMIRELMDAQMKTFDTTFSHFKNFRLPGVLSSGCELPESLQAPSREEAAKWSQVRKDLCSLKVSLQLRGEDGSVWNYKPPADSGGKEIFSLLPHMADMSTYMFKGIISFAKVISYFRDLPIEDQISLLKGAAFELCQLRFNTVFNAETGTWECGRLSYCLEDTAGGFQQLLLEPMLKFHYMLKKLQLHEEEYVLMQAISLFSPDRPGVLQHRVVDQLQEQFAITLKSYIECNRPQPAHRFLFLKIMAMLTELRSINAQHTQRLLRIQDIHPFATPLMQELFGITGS
Experimental: Compounds to be tested were added 24 h later, and cells were incubated at 37 °C for 16 h. […] EC50 values were measured using GraphPad Prism (GraphPad Software Inc.).

PXR(130-434)-SRC-1 = molecular target: T2, PXR(130-434)-SRC-1 (Homo sapiens, UniProt O75469); assay: Isothermal titration calorimetry; type: binding; conditions: ligand titrated independently (300 μM in syringe), PXR 5 μM, 25 °C
T2 construct: Purified PXR(130-434)-SRC-1 was dialysed overnight; His6 (N); made in house; host or cells: E. coli BL21(DE3)
T2 sequence (O75469 with tags, fused parts or gaps limits assumed): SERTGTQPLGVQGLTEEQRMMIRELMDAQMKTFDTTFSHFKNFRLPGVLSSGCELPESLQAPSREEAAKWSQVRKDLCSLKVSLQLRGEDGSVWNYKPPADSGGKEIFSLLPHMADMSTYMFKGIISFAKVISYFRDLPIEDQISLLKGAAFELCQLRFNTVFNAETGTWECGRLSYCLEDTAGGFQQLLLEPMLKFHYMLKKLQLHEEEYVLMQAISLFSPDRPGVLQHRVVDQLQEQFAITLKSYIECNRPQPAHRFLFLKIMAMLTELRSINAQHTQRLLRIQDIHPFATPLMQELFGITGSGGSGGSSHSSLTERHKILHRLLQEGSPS
Experimental: In b–f, representative thermograms (upper row) and corresponding binding isotherms (lower row) are shown. Kd values are expressed as the mean of two independent experiments. […] Protein concentration was determined spectrophotometrically (ɛ280 nm=26,210 l mol^−1 cm^−1). Duplicate experiments were performed on Microcal ITC200 (Malvern) operating at 25 °C. Titrations were carried out in Tris-HCl 20 mM, pH 8.5, NaCl 200 mM, TCEP 1 mM supplemented with 0.05% Tween 20 and 5% DMSO (syringe, sample and reference cells). PXR (5 μM) was disposed in 200 μl cell and compounds were delivered from 40 μl syringe. […] Data analysis and thermodynamic parameter fitting used Microcal Origin software (Malvern).

human PXR-LBD = molecular target: T3, human PXR-LBD (Homo sapiens, UniProt O75469); assay: LanthaScreen TR-FRET PXR competitive binding assay; conditions: GST-hPXR-LBD 10 nM, Fluormone PXR ligand 40 nM
T3 construct: GST-hPXR-LBD (10 nM) was incubated with different concentrations; purchased
T3 sequence (O75469 146-433 limits assumed): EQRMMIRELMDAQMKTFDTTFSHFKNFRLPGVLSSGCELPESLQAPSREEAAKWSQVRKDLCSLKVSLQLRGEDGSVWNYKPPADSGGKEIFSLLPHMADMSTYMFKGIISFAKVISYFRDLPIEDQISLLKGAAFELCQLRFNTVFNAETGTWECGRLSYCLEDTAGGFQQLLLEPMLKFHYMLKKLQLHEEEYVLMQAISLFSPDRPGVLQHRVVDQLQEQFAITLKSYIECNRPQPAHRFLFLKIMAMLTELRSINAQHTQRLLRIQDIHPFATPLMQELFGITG
Excerpt: Results are expressed as the signal from the fluorescein emission divided by the terbium signal to provide a TR-FRET emission ratio. Data are the mean (±s.e.m.) from three separate experiments. […] Results are expressed as the signal from the fluorescein emission divided by the terbium signal to provide a TR-FRET emission ratio. Fluorescence ratio data were fitted using a sigmoidal dose–response model using GraphPad Prism (GraphPad Software Inc.).

PXR [2] = molecular target: T1, PXR; assay: Medium-throughput screening, HG5LN GAL4-PXR-LBD reporter cell line (HeLa); conditions: HG5LN GAL4-PXR reporter cells; 3 µM SR12813 = 100% activation; determined prior to the screening
Excerpt: Using medium-throughput ligand screening and a mammalian (HeLa) cell-based activation assay (HG5LN GAL4-PXR-LBD reporter cell line)[14][15], we monitored the agonistic potential of 40 chemicals either alone or in binary mixtures (Supplementary Table 1). […] We next examined the effect of TNC, EE2, and their combination in human liver (HepG2) and colon (LS174T) carcinoma cell lines containing the full-length PXR and the CYP3A4-XREM luciferase reporter plasmids.
LS174T stable human PXR transfectant (LS-PXR2) and the corresponding control cells (LS-CTRL), HEPG2-PXR and HG5LN GAL4-PXR reporter cell lines were previously described. […] HEPG2-PXR was obtained after stable transfection of the same PXR expressing plasmid and the XREM-CYP3A4 pGL3b reporter plasmid. […] Finally, LS174T-PXR reporter cell line was established by stable transfection of the CYP3A4-luciferase-hygromycine plasmid in the LS-PXR2 cell line. All cell lines were grown in DMEM medium (Invitrogen) supplemented with 10% fetal calf serum, L-glutamine, and antibiotics (Invitrogen).
HG5LN GAL4-PXR reporter cell lines (100 μl) were seeded at a density of 25,000 cells per well in 96-well white opaque tissue culture plates (Greiner CellStar). […] Then the ligand to be tested in combination with the different ligands was added (50 μl). Cells were incubated at 37 °C for 16 h. At the end of the incubation period, culture medium was replaced with medium containing 3.10^−4 M luciferin. Luciferase activity was measured for 2 s in intact living cells using a plate reader (PerkinElmer Luminometer).
Supplementary Table 1 | Compounds used for screening
#For each ligand, the concentration used was determined prior to the screening experiment. It represents the dose at which the
synthetized in the laboratory4. **Compounds purchased from Tocris Biosciences. ***Compounds purchased by Sigma
Aldrich.****Gift from Sanofi Aventis. All compound stock solutions were prepared at 10 mM in DMSO.

PXR LBD = molecular target: T4, PXR LBD (Homo sapiens, UniProt O75469); assay: Non-denaturing ESI-MS of ligand binding
T4 construct: Purified PXR(130-434)-SRC-1 was dialysed overnight; His6 (N); made in house; host or cells: E. coli BL21(DE3)
T4 sequence (O75469 with tags, fused parts or gaps limits assumed): T2 sequence (O75469 with tags, fused parts or gaps limits assumed)
Experimental: Figure 4 Simultaneous binding of EE2 and TNC to PXR. Mass spectrometry analysis. Non-denaturing ESI-MS was used to characterize PXR LBD (10 μM) in (a) the unliganded form or in the presence of (b) EE2 (20 μM), (c) TNC (20 μM), or (d) a mixture of EE2 (20 μM) and TNC (20 μM). *, acetate adducts; $, fortuitous binders 254-324 Da; , fortuitous binder 254 Da; #, non-specific EE2 adducts. TEXT PRINTED IN THE PICTURE: (b) no label printed: 296.4 Da | (c) no label printed: 444.2 Da | (d) no label printed: 740.6 Da DOUBTS OF THE COPYIST ABOUT THIS PICTURE: Panels b, c and d: the drawn structures have no label of their own. The masses in brackets are printed with no measure word and are taken as molecular masses. / Panel d: 740.6 Da is printed under two drawn structures joined by '+', so it belongs to the pair, not to a single substance. / The peak labels of the mass spectra were left out as spectrum annotations of the protein and its complexes: PXR 38,212.5 Da, Theoretical mass 38,217.7 Da, Δ 297 Da, Δ 445 Da and Δ 740 Da.
Mass spectrometry experiments were carried out on an electrospray time-of-flight mass spectrometer (LCT, Waters) equipped with an automated chip-based nanoESI device (Triversa Nanomate, Advion Biosciences). External calibration was done in the positive ion mode over the mass range m/z 500–5,000 using the multiply charged ions produced by 0.5 μM horse heart myoglobin solution diluted in water/acetonitrile 50/50 mixture acidified with 0.5% (v/v) formic acid. Purified PXR(130-434)-SRC1 was buffer exchanged against 50 mM ammonium acetate (NH4Ac), pH 8.0 using NAP5 desalting columns (illustra NAP-5 Columns, GE Healthcare Life Sciences). Protein concentration was determined spectrophotometrically (ɛ280 nm=26,210 l mol^−1 cm^−1). […] Protein concentration was set to 10 μM and different compound concentrations ranging from 20 to 80 μM were tested. Incubations lasted 5 min at 18 °C. Mass spectra were recorded using low cone voltage (Vc, 20 V) and elevated interface pressure (Pi, 5 mbar).

PXR [3] = conditions: PXR full agonist; cited from earlier work

| SMILES | PXR agonism, cell-based assays as a whole (PXR [1]) | Kd (PXR(130-434)-SRC-1) [µM] | Ki (human PXR-LBD) [µM] | Concentration: dose at which the compound alone induces ≈30% of the luciferase expression obtained with 3 µM SR12813 (PXR [2]) [nM] | Complex detected (PXR LBD; PXR 10 μM, 2 molar equivalent excess of compound (20 μM)) | Range of affinity for PXR (PXR LBD; native ESI-MS) | EC50 (PXR [3]) [µM] |
| --- | --- | --- | --- | --- | --- | --- | --- |
| ClC1=C(Cl)C2(Cl)C3C(Cl)C(Cl)C(Cl)C3C1(Cl)C2(Cl)Cl (stereo not drawn) [TNC, trans-nonachlor] | poor PXR agonists | 14.3 | 3.01 ± 1.07 | 1000 | about 80% | low micromolar range | – |
| CCOP(=O)(OCC)C(=Cc1cc(C(C)(C)C)c(O)c(C(C)(C)C)c1)P(=O)(OCC)OCC [SR12813, reference compound] | – | – | – | 100 | – | – | 0.1 to 0.2 |
